# Test results taken from US11376246B2, “Inhibiting mutant IDH-1” (FORMA Therapeutics, Inc., priority 2018, dated 2022).
# Key:
# [1] = Literature reported data; cited from earlier work
# [2] = Dynamic vapor sorption (DVS); assay type: physicochemical; settings: 25° C./90% RH
SMILES,BBB+ [1],maximum water uptake (DVS) [2]
N#Cc1ccnc(N2C(=O)CC[C@H]2C(=O)N(c2cncc(F)c2)[C@H](C(=O)NC2CC(F)(F)C2)c2ccccc2Cl)c1 [AG-120],No,
C[C@@H](Nc1nc(N[C@H](C)C(F)(F)F)nc(-c2cccc(Cl)n2)n1)C(F)(F)F [AG-881],Yes,
"C[C@H](Nc1ccc(C#N)n(C)c1=O)c1cc2cc(Cl)ccc2[nH]c1=O [Compound 1 Type A, (S)-5-((1-(6-chloro-2-oxo-1,2-dihydroquinolin-3-yl)ethyl)amino)-1-methyl-6-oxo-1,6-dihydropyridine-2-carbonitrile]",,0.25 % w/w
